Test results as given in patent publication US6410792B1, “Amide derivatives and methods for using the same as selective neuropeptide Y receptor antagonists” (Bayer Corporation, priority 1997, dated 2002).
Where a name gives a salt, the structure may show the parent alone. Read-outs that look alike come from different tables or passages of the source.

Experiments:
Y2 receptor = target: T1, Y2 receptor (Homo sapiens, UniProt P49146); test: Y2 receptor binding assay ([125I]PYY, membrane protein); settings: membrane protein, read-out: hNPY2 IC50
T1 sequence (P49146 1-381): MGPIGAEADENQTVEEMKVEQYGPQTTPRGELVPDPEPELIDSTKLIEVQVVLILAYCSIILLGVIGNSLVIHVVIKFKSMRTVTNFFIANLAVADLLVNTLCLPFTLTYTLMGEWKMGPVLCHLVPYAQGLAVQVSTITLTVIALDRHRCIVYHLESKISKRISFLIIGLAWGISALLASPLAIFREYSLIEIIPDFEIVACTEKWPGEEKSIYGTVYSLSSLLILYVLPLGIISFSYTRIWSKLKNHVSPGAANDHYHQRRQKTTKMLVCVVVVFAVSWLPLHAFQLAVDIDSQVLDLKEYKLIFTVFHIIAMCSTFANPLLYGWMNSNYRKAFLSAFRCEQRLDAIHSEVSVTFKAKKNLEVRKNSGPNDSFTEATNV
Procedure: B. Human Y2 and Y4/PP1 Receptor Binding Assays
Binding assays were performed on GF/C Millipore 96-well plates pretreated with 0.02% polyethylenimine. The binding buffer for rat Y2 binding is Krebs-Ringer bicarbonate (pH 7.4) containing 0.01% BSA and 0.005% bacitracin. Samples consist of membrane protein, 25 pM [1251]PYY and drug dilution. Nonspecific binding is defined by 1 μM NPY. The binding buffer for human Y4/PP1 binding consists of 137 mM NaCl, 5.4 mM KCl, 0.44 mM KH2PO4, 1.26 mM CaCl2, 0.81 mM MgSO4, 20 mM HEPES, 1 mM dithiothreitol, 0.1% bacitracin, 100 mg/l streptomycin sulfate, 1 mg/l aprotinin, 10 mg/ml soybean trypsin inhibitor and 0.3% BSA, pH 7.4. Samples consist of membrane protein, 50 pM human [1251]human PP (hPP: NEN DuPont, Boston, Mass.) and drug dilution. 1 μM hPP is used to define nonspecific binding.
After a 2 hour incubation at room temperature with constant mixing, the samples are aspirated on a vacuum manifold, and rinsed with ice-cold binding buffer. The amount of radioactivity in each well is quantitated with either gamma counting or liquid scintillation.

Human NPY5 receptor = target: T2, Human NPY5 receptor (Homo sapiens, UniProt Q15761); test: Human NPY5 receptor binding assay ([125I]PYY, membrane protein); settings: [125I]PYY binding, read-out: hNPY5 IC50
T2 sequence (Q15761 1-445): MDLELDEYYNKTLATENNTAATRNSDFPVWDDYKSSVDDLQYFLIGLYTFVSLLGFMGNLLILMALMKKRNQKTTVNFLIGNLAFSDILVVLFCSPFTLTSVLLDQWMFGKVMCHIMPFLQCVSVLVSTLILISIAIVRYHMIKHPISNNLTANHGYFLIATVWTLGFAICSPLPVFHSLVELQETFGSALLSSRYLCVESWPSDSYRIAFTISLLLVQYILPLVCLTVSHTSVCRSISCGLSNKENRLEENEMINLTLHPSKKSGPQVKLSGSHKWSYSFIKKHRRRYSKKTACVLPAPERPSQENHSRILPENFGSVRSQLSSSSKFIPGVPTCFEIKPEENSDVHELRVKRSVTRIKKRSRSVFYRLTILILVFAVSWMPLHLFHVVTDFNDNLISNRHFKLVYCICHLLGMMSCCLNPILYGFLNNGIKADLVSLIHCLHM
Procedure: C. Human and Rat NPY5 Receptor Binding Assays
Binding assays are performed on GF/C Millipore 96well plates pretreated with 0.02% polyethylenimine. The binding buffer is 25 mM Tris, 120 mM NaCl, 5 mM KCl, 1.2 mM KH2PO4, 2.5 mM CaCl2, 1.2 mM MgSO4, 0.1% BSA and 0.5 mg/ml bacitracin, pH 7.4. Samples consist of membrane protein, 75-100 pM [125I]PYY (porcine, NEN-DuPont) and drug dilution. Nonspecific binding is defined by 1 μM PYY. After a 2 hour incubation at room temperature with constant mixing, the samples are aspirated on a vacuum manifold, and rinsed with ice-cold binding buffer. The amount of radioactivity in each well is quantitated with either gamma counting or liquid scintillation.

Row | Compound | IC50 (Y2 receptor; [125I]PYY binding) | IC50 (Human NPY5 receptor) | IC50 (Y2 receptor; [125I]PYY)
1 | CN(C)C1(C(N)=O)CCN(CC(=O)Nc2ccc(C(=O)c3ccccc3)cc2)CC1 [Compound 64, 1-[(4-Benzoyl-phenylcarbamoyl)-methyl]-4-dimethylamino-piperidine-4-carboxylic acid amide] | > 5 µM | 4.8 µM | 
2 | O=C(CN1CCC(N2CCCC2)CC1)Nc1ccc(C(=O)c2ccccc2)cc1 [Compound 45, N-(4-Benzoyl-phenyl)-2-(4-pyrrolidin-1-yl-piperidin-1-yl)-acetamide] | > 5 µM | 8.5 µM | 
3 | O=C(CN1CCC(CCCC2CCN(CCO)CC2)CC1)Nc1ccc(C2CCCCC2)cc1 [Compound 68, N-(4-Cyclohexyl-phenyl)-2-(4-{3-[1-(2-hydroxy-ethyl)-piperidin-4-yl]-propyl}-piperidin-1-yl)-acetamide] | > 5 µM | 9.7 µM | 
4 | Cn1cccc1CCNCC(=O)Nc1ccc(C(=O)c2ccccc2)cc1 [Compound 139, N-(4-Benzoyl-phenyl)-2-[2-(1-methyl-1H-pyrrol-2-yl)-ethylamino]-acetamide] |  | > 5 µM | 
5 | N-(4-Benzoyl-phenyl)-2-[4-(4-bromo-phenyl)-4-hydroxy-piperidin-1-yl]-acetamide [Compound 89] | > 5 µM | 0.52 µM | 
6 | NC[C@@H]1CCCN1CC(=O)Nc1ccc(C2CCCCC2)cc1 [Compound 91, 2-(2S-Aminomethyl-pyrrolidin-1-yl)-N-(4-cyclohexyl-phenyl)-acetamide] | > 5 µM | 0.43 µM | 
7 | O=C(CN1CCC(n2c(=O)[nH]c3ccccc32)CC1)NC(c1ccccc1)c1ccccc1 [Compound 322, N-Benzhydryl-2-[4-(2-oxo-2,3-dihydro-benzoimidazol-1-yl)-piperidin-1-yl]-acetamide; hydrochloride] |  |  | > 5 µM
8 | CCCCCCCCCCNCC(=O)Nc1ccc(C(=O)c2ccccc2)cc1 [Compound 150, N-(4-Benzoyl-phenyl)-2-decylamino-acetamide] |  | > 5 µM | 
9 | COc1ccccc1CNCC(=O)Nc1ccc(C(=O)c2ccccc2)cc1 [Compound 159, N-(4-Benzoyl-phenyl)-2-(2-methoxy-benzylamino)-acetamide] |  | > 5 µM | 
10 | COc1ccc2[nH]cc(CCNCC(=O)Nc3ccc(C4CCCCC4)cc3)c2c1 [Compound 144, N-(4-Cyclohexyl-phenyl)-2-[2-(5-methoxy-1H-indol-3-yl)-ethylamino]-acetamide] |  | > 5 µM | 
11 | CCCCCCCCCCNCC(=O)Nc1ccc(C2CCCCC2)cc1 [Compound 140, N-(4-Cyclohexyl-phenyl)-2-decylamino-acetamide] |  | > 5 µM | 
12 | O=C(CNCc1ccc2c(c1)OCO2)Nc1ccc(C(=O)c2ccccc2)cc1 [Compound 158, 2-[(Benzo[1,3]dioxol-5-ylmethyl)-amino]-N-(4-benzoyl-phenyl)-acetamide] |  | > 5 µM | 
13 | O=C(CNc1nc[nH]n1)Nc1ccc(C(=O)c2ccccc2)cc1 [Compound 137, N-(4-Benzoyl-phenyl)-2-(1H-[1,2,4]triazol-3-ylamino)-acetamide] |  | > 5 µM | 
14 | O=C(CNCCN1CCNCC1)Nc1ccc(C2CCCCC2)cc1 [Compound 146, N-(4-Cyclohexyl-phenyl)-2-(2-piperazin-1-yl-ethylamino)-acetamide] |  | > 5 µM | 
15 | COc1ccc(CCNCC(=O)Nc2ccc(C3CCCCC3)cc2)cc1 [Compound 145, N-(4-Cyclohexyl-phenyl)-2-[2-(4-methoxy-phenyl)-ethylamino]-acetamide] |  | > 5 µM | 
16 | O=C(CN1C[C@H](O)C[C@H]1C(=O)O)Nc1ccc(C2CCCCC2)cc1 [Compound 12, (4R,2S)-1-[(4-Cyclohexyl-phenylcarbamoyl)-methyl]-4-hydroxy-pyrrolidine-2-carboxylic acid] |  | 8.9 µM | 
17 | CN(C)C1(C(N)=O)CCN(CC(=O)Nc2ccc(C3CCCCC3)cc2)CC1 [Compound 65, 1-[(4-Cyclohexyl-phenylcarbamoyl)-methyl]-4-dimethylamino-piperidine-4-carboxylic acid amide] |  | 0.69 µM | 

Row | Compound | IC50 (Y2 receptor; [125I]PYY binding) | IC50 (Human NPY5 receptor) | IC50 (Y2 receptor; [125I]PYY)
18 | O=C(CN1CCN(c2ccc(Cl)cc2)CC1)Nc1ccc(C2CCCCC2)cc1 [Compound 4, 2-[4-(4-Chloro-phenyl)-piperazin-1-yl]-N-(4-cyclohexyl-phenyl)-acetamide] | > 5 µM |  | 
19 | O=C(CNCCN1CCNCC1)Nc1ccc(C(=O)c2ccccc2)cc1 [Compound 156, N-(4-Benzoyl-phenyl)-2-(2-piperazin-1-yl-ethylamino)-acetamide] |  | > 5 µM | 
20 | O=C(CNC(c1ccccc1)c1ccccc1)Nc1ccc(C2CCCCC2)cc1 [Compound 131, 2-(Benzhydryl-amino)-N-(4-cyclohexyl-phenyl)-acetamide] |  | > 5 µM | 
21 | O=C(CNCCc1c[nH]cn1)Nc1ccc(C2CCCCC2)cc1 [Compound 142, N-(4-Cyclohexyl-phenyl)-2-[2-(1H-imidazol-4-yl)-ethylamino]-acetamide] |  | > 5 µM | 
22 | O=C(CNCCCc1ccccc1)Nc1ccc(C(=O)c2ccccc2)cc1 [Compound 151, N-(4-Benzoyl-phenyl)-2-(3-phenyl-propylamino)-acetamide] |  | > 5 µM | 
23 | O=C(CNCCc1c[nH]c2ccccc12)Nc1ccc(C(=O)c2ccccc2)cc1 [Compound 153, N-(4-Benzoyl-phenyl)-2-[2-(1H-indo-3-yl)-ethylamino]-acetamide] |  | > 5 µM | 
24 | O=C(CN1CCCC1C(=O)O)Nc1ccc(C(=O)c2ccccc2)cc1 (stereo not drawn) [Compound 124, 1-[(4-Benzoyl-phenylcarbamoyl)-methyl]-pyrrolidine-2-carboxylic acid] | > 5 µM |  | 
25 | O=C(CNC(c1ccccc1)c1ccccc1)Nc1ccc(C(=O)c2ccccc2)cc1 [Compound 138, 2-(Benzhydryl-amino)-N-(4-benzoyl-phenyl)-acetamide] |  | > 5 µM | 
26 | NCCNCC1CCN(CC(=O)Nc2ccc(C(=O)c3ccccc3)cc2)CC1 [Compound 134, 2-{4-[(2-Amino-ethylamino)-methyl]-piperidin-1-yl}-N-(4-benzoyl-phenyl)-acetamide] |  | > 5 µM | 
27 | O=C(CNCCNc1ccc([N+](=O)[O-])cn1)Nc1ccc(C2CCCCC2)cc1 [Compound 147, N-(4-Cyclohexyl-phenyl)-2-[2-(5-nitro-pyridin-2-ylamino)-ethylamino]-acetamide] |  | > 5 µM | 
28 | O=C(CNCCc1c[nH]cn1)Nc1ccc(C(=O)c2ccccc2)cc1 [Compound 152, N-(4-Benzoyl-phenyl)-2-[2-(1H-imidazol-4-yl)-ethylamino]-acetamide] |  | > 5 µM | 
29 | COc1ccc(CCNCC(=O)Nc2ccc(C(=O)c3ccccc3)cc2)cc1 [Compound 155] |  | > 5 µM | 
30 | COc1ccccc1CNCC(=O)Nc1ccc(C2CCCCC2)cc1 [Compound 149, N-(4-Cyclohexyl-phenyl)-2-(2-methoxy-benzylamino)-acetamide] |  | > 5 µM | 
31 | O=C(CNCCc1c[nH]c2ccccc12)Nc1ccc(C2CCCCC2)cc1 [Compound 143, N-(4-Cyclohexyl-phenyl)-2-[2-(1H-indol-3-yl)-ethylamino]-acetamide] |  | > 5 µM | 
32 | O=C(CNCCNc1ccc([N+](=O)[O-])cn1)Nc1ccc(C(=O)c2ccccc2)cc1 [Compound 157, N-(4-Benzoyl-phenyl)-2-[2-(5-nitro-pyridin-2-ylamino)-ethylamino]-acetamide] |  | > 5 µM | 
33 | O=C(CN1CCCC1)Nc1ccc(C(=O)c2ccccc2)cc1 [Compound 136, N-(4-Benzoyl-phenyl)-2-pyrrolidin-1-yl-acetamide] |  | > 5 µM | 
34 | O=C(CNCCCc1ccccc1)Nc1ccc(C2CCCCC2)cc1 [Compound 141, N-(4-Cyclohexyl-phenyl)-2-(3-phenyl-propylamino)-acetamide] |  | > 5 µM | 
